# Measured values as given in US10844091B2 (priority 2017, dated 2020).
# Marks after values point to notes of the source that are not given here. Non-standard residues stand in square brackets, D forms with d.
# Key:
# [1] = system: catalase; assay: Catalase activity in the brain of rat models with Alzheimer's disease; format: in vivo; details: tetrapeptide 0.1 mg/kg; statistically significant
# Procedure: (§1) The drugs were administered daily, once a day.
# (§2) Standard biochemical methods were used to determine the content and activity of antioxidant defense enzymes and products of lipid peroxidation: malonic dialdehyde (MDA) [Modern Biochemistry Methods/[edited by V. N. Orekhovich]; M. Medicine, 1977, 392 pp]; superoxide dismutase (SOD) [O. P. Makarevich Activity of superoxide dismutase in blood in the acute period of various diseases/O. P. Makarevich, P. P. Golikov//Lab. Science, 1983, No 6, pp 24-27]; catalase [Methods for the Determination of Catalase Activity/M. A. Korolyuk, L. I. Ivanova, I. G. Mayorova, et al//Lab. Science, 1988, No 1, pp 16-19]; and reduced glutathione [T. A. Kochetov A Practical Guide to Enzymology. M. Nauka, 1980, 280 pp].
# [2] = system: reduced glutathione; assay: Reduced glutathione level in the brain of rat models with Alzheimer's disease; format: in vivo; details: tetrapeptide 0.1 mg/kg
# Procedure: as §1, §2
# [3] = system: rat models with Alzheimer's disease; assay: Conditioned passive avoidance reflex (CPAR) test, scopolamine-induced Alzheimer's disease model; format: in vivo; details: for antiamnesic action (AA) in the CPAR test: Butler's formula, 0.1 mg/kg; for number of animals who reached the CPAR learning criterium: % of total trained animals, criterium at least 180 sec in light area
# Procedure: (§3) White random-bred adult male rats weighing 200-240 g were used. Groups of 7 animals per group were formed. 1st group—control, 2nd—pathology, 3rd—comparator drug, 4th-6th—neuropeptides.
# (§4) Scopolamine was administered i.p. to the animals in all groups except for the control at a 1 mg/kg dose daily, once a day for 27 days. From the 28th day on, the animals in groups 2 and 3 were administered the comparator drug and the claimed preparation respectively over the course of 10 days. The drugs were administered daily, once a day.
# (§5) The tetrapeptides were administered i.n at a 0.1 mg/kg dose. The animals in the pathology group received 0.9% sodium chloride solution i.n. and i.p. as a placebo.
# (§6) The OF and EE tests were conducted on the 1st day, PST—on the 2nd day, CPAR—on the 1st and 10th day post treatment with the preparations. […] The antiamnesic action (AA) in the CPAR test was calculated using Butler's formula [K. S. Radionova. […] After that, the animals were removed from the experiment by administering a narcotic, followed by decapitation. The brain was extracted and weighed, and the brain weight coefficient (BWC) was calculated. Immediately after extraction, the brain was frozen in liquid nitrogen and used in subsequent biochemical and histochemical studies. Glucose levels in whole arterial (common carotid artery) and venous (venous cerebral sinus) blood were determined by the glucose oxidase test, the difference in the arterial-venous glucose content was calculated (glucose consumption marker). The levels of average weight molecules—the toxic products of cell biodegradation damaged during the disease (nucleoside derivatives, peptoids, glucuronic acid salts, etc.) in the blood serum (AWM) were calculated [A. N. Kovalevsky. Notes on the screening method of determination average weight molecules/A. N. Kovalevsky, O. Ye. Nifantiev//Lab. Science. […] 35-39].
# [4] = system: rat models with Alzheimer's disease; assay: Extrapolation escape (EE) test, scopolamine-induced Alzheimer's disease model; format: in vivo
# Procedure: as §3, §4, §5, §6
# [5] = system: acetylcholine; assay: Acetylcholine content in the brain homogenate of rat models with Alzheimer's disease; format: in vivo; details: compared to the control, pathology and donepezil groups, p<0.05
# Procedure: as §1
# 1966, t. […] M. I. Prokhorova, Leningrad, pub. House LSU, 1982.—pp. 256-258].
# [6] = system: serotonin; assay: Serotonin level in the brain of rat models with Alzheimer's disease; format: in vivo; details: donepezil 1 mg/kg, tetrapeptide 0.1 mg/kg
# Procedure: as §1
# M. I. Prokhorova, Leningrad, pub.
# [7] = Arteriovenous glucose difference in rat models with Alzheimer's disease; format: in vivo; details: tetrapeptide 0.1 mg/kg; as a trend
# Procedure: as §1
# The OF and EE tests were conducted on the 1st day, PST—on the 2nd day, CPAR—on the 1st and 10th day post treatment with the preparations. The CPAR proficiency criterium—remaining in the light area of the CPAR device during at least 180 sec. The antiamnesic action (AA) in the CPAR test was calculated using Butler's formula [K. S. Radionova. Original nootropic preparation Noopept ameliorates memory loss caused by the M- and N-choline receptor blockade in rats/K. S. Radionova, A. P. Bel'nik, R. U. Ostrovskaya//Bul experim. Biology and Medicine.—2008.—T.146, No 1.—pp 65-68]. After that, the animals were removed from the experiment by administering a narcotic, followed by decapitation. The brain was extracted and weighed, and the brain weight coefficient (BWC) was calculated. […] Glucose levels in whole arterial (common carotid artery) and venous (venous cerebral sinus) blood were determined by the glucose oxidase test, the difference in the arterial-venous glucose content was calculated (glucose consumption marker). The levels of average weight molecules—the toxic products of cell biodegradation damaged during the disease (nucleoside derivatives, peptoids, glucuronic acid salts, etc.) in the blood serum (AWM) were calculated [A. N. Kovalevsky. […]
# [8] = system: rat models with AD; assay: Porsolt swim test (PST), scopolamine-induced Alzheimer's disease model; format: in vivo; details: AD rats; donepezil 1 mg/kg i.p., tetrapeptide (LYS) 0.1 mg/kg i.n.
# Procedure: as §3, §4, §5, §6
# [9] = target: acetylcholinesterase (Rattus norvegicus, UniProt P37136); details: donepezil 1 mg/kg, tetrapeptide 0.1 mg/kg
# Procedure: as §4, §5
# (§7) A procedure for the isolation of noradrenaline (together with adrenaline), dopamine, 5-hydroxy tryptamine and histamine from the same tissue sample using a single column of strongly acidic cation exchange resin 1C. […] Determination of ATP content in tissue//Methods for biochemical research/Edited by prof. M. I. Prokhorova, Leningrad, pub.
# [10] = system: butyrylcholinesterase; details: tetrapeptide 0.1 mg/kg
# Procedure: as §4, §5, §7
# [11] = 3 min test, scopolamine 1 mg/kg i.p. 27 days, donepezil 1 mg/kg i.p. 10 days, peptide (LYS) 0.1 mg/kg i.n. 10 days
# Chain of acetylcholinesterase (P37136 32-614): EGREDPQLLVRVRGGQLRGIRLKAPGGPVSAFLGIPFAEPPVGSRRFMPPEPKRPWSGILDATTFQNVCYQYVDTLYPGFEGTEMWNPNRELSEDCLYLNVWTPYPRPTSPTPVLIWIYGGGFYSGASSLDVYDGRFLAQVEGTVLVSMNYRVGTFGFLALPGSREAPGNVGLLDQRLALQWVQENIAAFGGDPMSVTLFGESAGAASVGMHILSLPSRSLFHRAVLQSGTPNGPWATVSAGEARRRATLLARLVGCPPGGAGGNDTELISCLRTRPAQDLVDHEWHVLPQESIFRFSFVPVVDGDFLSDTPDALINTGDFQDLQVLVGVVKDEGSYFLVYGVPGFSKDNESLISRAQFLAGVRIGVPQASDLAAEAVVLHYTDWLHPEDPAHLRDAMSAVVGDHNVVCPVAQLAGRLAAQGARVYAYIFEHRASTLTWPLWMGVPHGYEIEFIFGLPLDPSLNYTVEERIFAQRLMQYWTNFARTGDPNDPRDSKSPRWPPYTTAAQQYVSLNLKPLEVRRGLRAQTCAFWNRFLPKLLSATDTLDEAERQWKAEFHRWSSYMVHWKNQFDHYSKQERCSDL
substance,measurement,setting,value
acetyl-D-Lys-Lys-Arg-Arg-amide (Ac-[dK]KRR-NH2; SMILES CC(=O)N[C@H](CCCCN)C(=O)N[C@@H](CCCCN)C(=O)N[C@@H](CCCNC(=N)N)C(=O)N[C@@H](CCCNC(=N)N)C(N)=O) [tetrapeptide (LYS)],reduction of the elevated activity of catalase,[1],1.1 times
same,increase of the level of reduced glutathione in the brain,[2],36.6%
same,antiamnesic action (AA) in the CPAR test,[3]; 10th day,81.5%
same,increase of latent period compared to the pathology group,[3]; 24 hrs. post formation of CPAR,79.5%
same,"Latent period of entry into the dark area of the CPAR device, In 24 hrs.","[3]; In 24 hrs., scopolamine + donepezil 1 mg/kg or tetrapeptide (LYS) 0.1 mg/kg i.n.",126.14 ± 23.62 s
same,"Latent period of entry into the dark area of the CPAR device, In 10 days","[3]; In 10 days, scopolamine + donepezil 1 mg/kg or tetrapeptide (LYS) 0.1 mg/kg i.n.",89.71 ± 19.09^ sec.
same,"Latent period of entry into the dark area of the CPAR device, Initial","[3]; Initial, scopolamine + donepezil 1 mg/kg or tetrapeptide (LYS) 0.1 mg/kg i.n.",20.14 ± 3.73 s
same,number of animals who reached the CPAR learning criterium,[3]; first day,42.9%
same,antiamnesic action (AA) in the CPAR test,[3]; first day,56.5%
same,increase of latent period compared to the pathology group,"[3]; post 10 days, p<0.05",130.9%
same,number of animals who reached the CPAR learning criterium,[3]; tenth day,14.3%
same,reduction of escape time compared to the pathology group,"[4]; 0.1 mg/kg i.n. 10 days, p<0.05",3.8 times
same,escape time difference versus donepezil,"[4]; 0.1 mg/kg i.n. vs donepezil 1 mg/kg, p<0.05",41.7%
same,% of animals succeeded,[4]; [11],100%
same,Escape time,[4]; [11],11.00 ± 3.07*^ sec.
same,content of acetylcholinesterase in the brain (FIG. 11),[5],statistically significantly reduces
same,reduction of the serotonin level in the brain,[6],23.8%
same,glucose utilization in the brain,[7],improved glucose utilization
same,Latent period of immobilization,[8],68.12 ± 6.15 s
same,Number of immobilization acts,[8],6.21 ± 0.82
same,Total duration of immobilization,[8],111.06 ± 13.25 s
same,AChE activity in synapsosomes and in the whole brain homogenate,[9],reduces
same,butyrylcholinesterase activity in the brain,[10],significantly increases
